Earlier results as cited in US8911781B2, “Process of manufacture of novel drug delivery system: multilayer tablet composition of thiazolidinedione and biguanides” (Inventia Healthcare Private Limited, priority 2002, dated 2014).
Structures can show the parent of a compound that is named as a salt.

Assays:
[1] = after ingestion
[2] = at steady state concentrations; parent drug

SMILES | time to complete gastro-intestinal absorption [1] | plasma elimination half-life (t½) [2]
CN(C)C(=N)N=C(N)N [Metformin HCl] | ≤ 6 h | –
CCc1ccc(CCOc2ccc(CC3SC(=O)NC3=O)cc2)nc1 (centres unmarked) [Pioglitazone HCl] | – | 3.3 to 4.9 h
